In US20210181179A1, “DIAGNOSIS AND TREATMENT OF IMMUNOTHERAPY-INDUCED NEUROTOXICITY” (MEMORIAL SLOAN KETTERING CANCER CENTER, priority 2018, published 2021):

Experiments:
CCF-STTG1 (astrocytoma) = assay: Net production of TRP metabolites in media samples, CCF-STTG1; type: cell-based, human
Description: (§1) Under physiological conditions in the brain, kynurenine metabolism is driven by microglial cells and astrocytes with preferential production of QUIN and KA respectively. […] This may have been due to T cells producing cytokines and/or intermediate metabolites that are further metabolized to QUIN by the cells. In order to identify specific factors that may lead to tryptophan-kynurenine pathway up-regulation for QUIN production, we tested a panel of cytokine and chemokines implicated in NTX and CRS. […] We initially evaluated the panel of the select factors individually (FIGS. 16 A-B). We selected several cytokines based on their effect on rate-limiting enzymes for QUIN production. These included IFNγ, TNF, […], CXCL10 and […]. These enzymes were selected based on their regulation of key enzymes, KMO and KYNU, which may lead to supraphysiological accumulation of QUIN. These factors were further evaluated, individually or in combination, on astrocytoma, microglial, and primary monocyte-derived macrophages for mRNA levels of kynurenine pathway enzymes and kynurenine metabolites production (FIG. 17).

SUP-B15 (B-ALL) = assay: Net production of TRP metabolites in media samples, SUP-B15; type: cell-based
HMC3 (microglia) = assay: Net production of TRP metabolites in media samples, HMC3; type: cell-based, human
Description: as §1

RS4; 11 (B-ALL) = assay: Net production of TRP metabolites in media samples, RS4; 11; type: cell-based
BV173 (B-ALL) = assay: Net production of TRP metabolites in media samples, BV173; type: cell-based
HCN2 (cortical neuron) = assay: Net production of TRP metabolites in media samples, HCN2; type: cell-based
ALL3.1 (B-ALL) = assay: Net production of TRP metabolites in media samples, ALL3.1; type: cell-based
CCRF-SB (B-ALL) = assay: Net production of TRP metabolites in media samples, CCRF-SB; type: cell-based
THP-1 (monocyte) = assay: Net production of TRP metabolites in media samples, THP-1; type: cell-based
KARPAS231 (B-ALL) = assay: Net production of TRP metabolites in media samples, KARPAS231; type: cell-based
DOAY (medulloblastoma) = assay: Net production of TRP metabolites in media samples, DOAY; type: cell-based

For TNFα, the “Net production of TRP metabolites in media samples: 3-HK” value (“Net production … 3-HK” for short) (CCF-STTG1 (astrocytoma)) was −9.8 ± 2.6, the “Net production of TRP metabolites in media samples: HAA” value (“Net production … HAA” below) (CCF-STTG1 (astrocytoma)) was 10.74 ± 0.9 and the “Net production of TRP metabolites in media samples: KA” value (from here on “Net production … KA”) (CCF-STTG1 (astrocytoma)) was 1.36 ± 0.5. For the same substance, the “Net production of TRP metabolites in media samples: KYN” value (from here on “Net production … KYN”) (CCF-STTG1 (astrocytoma)) was 2853.38 ± 129.6, the “Net production of TRP metabolites in media samples: QUIN” value (shortened to “Net production … QUIN”) (CCF-STTG1 (astrocytoma)) was 12.92 ± 4 and the “Net production … 3-HK” value (SUP-B15 (B-ALL)) was 17.56 ± 14^. The “Net production … HAA” value (SUP-B15 (B-ALL)) was 6.58 ± 0.8, the “Net production … KA” value (SUP-B15 (B-ALL)) was −9.16 ± 3^ and the “Net production … KYN” value (SUP-B15 (B-ALL)) was 303.8 ± 191. The “Net production … QUIN” value (SUP-B15 (B-ALL)) was −67.3 ± 23^, the “Net production … 3-HK” value (HMC3 (microglia)) was 7.44 ± 18 and the “Net production … HAA” value (HMC3 (microglia)) was −2.14 ± 0.45. For the same substance, the “Net production … KA” value (HMC3 (microglia)) was 3.38 ± 2.9, the “Net production … KYN” value (HMC3 (microglia)) was 506.02 ± 251^ and the “Net production … QUIN” value (HMC3 (microglia)) was 52.84 ± 27.6. For the same substance, the “Net production … 3-HK” value (RS4; 11 (B-ALL)) was −0.34 ± 1.9, the “Net production … KA” value (RS4; 11 (B-ALL)) was −5.46 ± 5.7 and the “Net production … KYN” value (RS4; 11 (B-ALL)) was 4.38 ± 25.2. For the same substance, the “Net production … QUIN” value (RS4; 11 (B-ALL)) was 42.26 ± 39^, the “Net production … 3-HK” value (BV173 (B-ALL)) was 10.36 ± 9.9 and the “Net production … KA” value (BV173 (B-ALL)) was −3.16 ± 2.1. For the same substance, the “Net production … KYN” value (BV173 (B-ALL)) was 216.84 ± 141.1 ™, the “Net production … QUIN” value (BV173 (B-ALL)) was −8.44 ± 48.4 and the “Net production … 3-HK” value (HCN2 (cortical neuron)) was 4.82 ± 1.9. The “Net production … HAA” value (HCN2 (cortical neuron)) was 4.52 ± 0.3, the “Net production … KA” value (HCN2 (cortical neuron)) was 1.56 ± 1.5 and the “Net production … KYN” value (HCN2 (cortical neuron)) was 5.4 ± 10. The “Net production … QUIN” value (HCN2 (cortical neuron)) was 8.44 ± 12.2, the “Net production … 3-HK” value (ALL3.1 (B-ALL)) was 6.26 ± 7.3 and the “Net production … KA” value (ALL3.1 (B-ALL)) was −4.56 ± 5.5. The “Net production … KYN” value (ALL3.1 (B-ALL)) was 76.98 ± 139.6, the “Net production … QUIN” value (ALL3.1 (B-ALL)) was −13.1 ± 32.3 and the “Net production … 3-HK” value (CCRF-SB (B-ALL)) was 28.96 ± 22.5. For the same substance, the “Net production … HAA” value (CCRF-SB (B-ALL)) was 11.34 ± 3.9, the “Net production … KA” value (CCRF-SB (B-ALL)) was −9.3 ± 4.7 and the “Net production … KYN” value (CCRF-SB (B-ALL)) was 361.62 ± 256.4. The “Net production … QUIN” value (CCRF-SB (B-ALL)) was −70.3 ± 30.4, the “Net production … 3-HK” value (THP-1 (monocyte)) was 0.82 ± 1.5 and the “Net production … KA” value (THP-1 (monocyte)) was −9.9 ± 5. The “Net production … KYN” value (THP-1 (monocyte)) was 298.62 ± 61.8, the “Net production … QUIN” value (THP-1 (monocyte)) was 16.24 ± 51.4 and the “Net production … 3-HK” value (KARPAS231 (B-ALL)) was 4.94 ± 3.4. For the same substance, the “Net production … HAA” value (KARPAS231 (B-ALL)) was 14.18 ± 4.6, the “Net production … KA” value (KARPAS231 (B-ALL)) was −7.72 ± 36.9 and the “Net production … KYN” value (KARPAS231 (B-ALL)) was −72.84 ± 36.9. For the same substance, the “Net production … QUIN” value (KARPAS231 (B-ALL)) was −44.96 ± 36.3, the “Net production … 3-HK” value (DOAY (medulloblastoma)) was −8.84 ± 1.2 and the “Net production … HAA” value (DOAY (medulloblastoma)) was 10.14 ± 0.8. The “Net production … KA” value (DOAY (medulloblastoma)) was 4.52 ± 0.7, the “Net production … KYN” value (DOAY (medulloblastoma)) was 35.94 ± 12.9 and the “Net production … QUIN” value (DOAY (medulloblastoma)) was 19.86 ± 7.1.
